Earlier results on three sequences are cited in patent US8674081B2, “Methods and compositions to elicit multivalent immune responses against dominant and subdominant epitopes, expressed on cancer cells and tumor stroma” (Mankind Corporation, priority 2005, dated 2014).

Data set [1] relates to human PBMC. The settings on record: stated as 'has been shown'.
For data set [2] the following is noted: stated as 'has been shown'.
The subject of data set [3] is MHC class I. The following applies: stated as 'has been shown'.

Regarding “GLPSIPVHPI (listed as Homo sapiens) [PSMA288-297]”, the “CTL / anti-tumor immune response, in vitro immunization of human PBMC” value (from here on “CTL / anti-tumor immune response … of human PBMC”) in data set [1] is given as “significant CTL responses”. Also, the “CTL / anti-tumor immune response, in vivo immunization in mice” value (shortened to “CTL / anti-tumor immune response … in mice”) in data set [2] was “significant CTL responses”.

With GLPSIPVHPV [PSMA288-297 I297V], the “CTL / anti-tumor immune response … of human PBMC” value in data set [1] is recorded as “significant CTL responses”. The “CTL / anti-tumor immune response … in mice” value in data set [2] was “significant CTL responses”. Besides, the “MHC class I binding relative to native epitope” value in data set [3] is reported as “elevated”.

On to SLLQHLIGL [PRAME425-433], for which the “CTL / anti-tumor immune response … of human PBMC” value in data set [1] is reported as “strong anti-tumor immune responses”. Further, in data set [2], the “CTL / anti-tumor immune response … in mice” value is listed as “strong anti-tumor immune responses”.
